From patent EP0378671B1, “INSULINOMIMETIC AND INSULIN RECEPTOR BINDING SITE PEPTIDES” (CITY OF HOPE, priority 1988, dated 1997)

Tested on: isolated rat adipocytes
Assay: Lipogenesis assay: incorporation of 3-[3H] glucose into lipids
Assay type: cell-based
Details: 2 hours at 37°C, compared with insulin and basal (Figure 10)
Description: The lipogenesis assay was conducted according to Smal, et al., J.Biol.Chem. 262:11071-11079 (1987). Dissected epididymal and retroperitoneal fat pads were digested under vigorous shaking at 37°C for 30 min with collagenase (1.0 mg/ml) in Krebs-Ringer-Heps (KRH) buffer, pH 7.4, 35 mg/ml dialyzed bovine serum albumin (BSA), 0.27 mM glucose. After filtration on cheesecloth and 4 washes in KRH with 10 mg/ml BSA, the adipocytes were preincubated for 4 hours at 37°C in the same buffer.
The lipogenesis assay was performed in triplicate in 6 ml polyethylene vials by adding successively 400 µl of adipocyte suspension (80 X l0^3 cells/ml), 50 µl of KRH buffer pH 7.4 (1% BSA, 0.27 mM glucose) without hormone (basal lipogenesis) or with insulin or receptor-derived peptides at the indicated concentrations, and 50 µl D-[3-^3H]-glucose in a total volume of 0.5 ml. The vials were incubated 2 hours at 37°C under gentle shaking. […]

Substance: insulin receptor sequence 81-91: peptide with insulin receptor sequence 81-91 (LIMITDYLLLF; UniProt P06213 81-91, looked up, fragment)
- stimulation of lipogenesis: totally inactive
- stimulation of lipogenesis (listed as insulin receptor sequence 81 to 91): not stimulated above basal
